From EP4566586A1, “SKIN-CARE PRODUCT COMPOSITION AND PHARMACEUTICAL COMPOSITION COMPRISING SULFONATED CALIXARENE, AND USE OF SULFONATED CALIXARENE” (Calix Biotechnology (Hangzhou) Co., Ltd, priority 2022, dated 2024)
Converted amounts (≈) assume the structure as drawn. Marks after values point to notes of the source that are not given here.

Columns and labels:
physchem = settings: water
Experimental: Test Method: UV Absorption Spectroscopy.
The UV absorption intensities were measured, and a standard working curve was prepared. […] The mixtures were shaken overnight and then centrifuged to collect the supernatant for UV absorption curve detection.

[1] = UV titration, binding constants between SC8A-12C and skincare active substances; settings: 25°C, 1:1 host-guest direct binding model; for Binding constants Ka: host SC8A-12C, active substance 15 µM in deionized water
Experimental: (§1) Test Method: UV titration.
Test Equipment: A Japan Shimadzu UV-3600 UV-Visible Spectrophotometer, equipped with a temperature control module (model: PTC-348WI), was used. The samples were tested using Shimadzu's quartz cuvettes with an optical path length of 10 mm.
(§2) Reagents: Vitamin A (Va) was purchased from Shanghai Macklin Biochemical Technology Co., Ltd, retinoic acid was purchased from Heowns Biochem Technologies, LLC, Tianjin, and other skincare active substances were commercially available products.
(§3) Va was dissolved in methanol to a concentration of 2 mM. During the test, the Va stock solution was added to a cuvette and adjusted to a volume of 3 mL with deionized water, resulting in a concentration of 10 µM. […] The binding constant Kα for the host-guest inclusion was determined.
During the test, the retinoic acid stock solution was added to a cuvette and adjusted to a volume of 3 mL with deionized water, resulting in a concentration of 15 µM.
During the test, the stock solution of the active substance was added to a cuvette and adjusted to a volume of 3 mL with deionized water, resulting in a concentration of 15 µM. […] The UV titration data were fitted using a 1:1 host-guest direct binding model to determine the binding constant Kα for the host-guest inclusion.

[2] = as above; settings: host SC8A-12C, active substance 15 µM in deionized water, 25°C, 1:1 host-guest direct binding model
Experimental: as §1, §2
as §3, with “The change in UV absorption intensity was recorded after each addition of the SC8A-12C stock solution. […] The” for “The”
SC8A-12C stock solution and retinoic acid stock solution were first prepared. […] During the test, the retinoic acid stock solution was added to a cuvette and adjusted to a volume of 3 mL with deionized water, resulting in a concentration of 15 µM. […] The change in UV absorption intensity was recorded after each addition of the SC8A-12C stock solution.
During the test, the stock solution of the active substance was added to a cuvette and adjusted to a volume of 3 mL with deionized water, resulting in a concentration of 15 µM. […] The change in UV absorption intensity was recorded after each addition of the SC8A-12C stock solution. […]

[3] = Solubilization of Retinoic acid by sulfonated calixarene (UV absorption); format: physicochemical; settings: 5 mg retinoic acid in 3 mL deionized water, shaken overnight, supernatant UV
Experimental: Testing Equipment: A Japan Shimadzu UV-3600 UV-Visible Spectrophotometer, equipped with a temperature control module (model: PTC-348WI), was used. The samples were tested using Shimadzu's quartz cuvettes with an optical path length of 10 mm.
Excess retinoic acid was added to each of the three groups of solutions at a concentration of 5 mg/mL, followed by ultrasonic treatment to enhance the solubility of retinoic acid. After 20 mins, each group of solution was diluted 10-fold for UV absorption wavelength measurement. At the same time, 5 mg (an excess amount) of retinoic acid was added to 3 mL of deionized water, the mixture was shaken overnight, centrifuged to obtain the supernatant. […] Retinoic acid was dissolved in methanol solution to prepare a stock solution of 4 mM retinoic acid in methanol. After 20 mins, the stock solution of retinoic acid in methanol was diluted in water to prepare a retinoic acid standard solution with an appropriate concentration, for UV absorption wavelength detection. […]
A standard working curve for retinoic acid was prepared. […] Subsequently, the UV absorbance intensities of these six groups of solutions with different concentrations of retinoic acid were measured, and a standard working curve was prepared.

[4] = Skin permeability test of retinoic acid (transdermal diffuser); format: in vitro ADME; settings: ointment base (cream), retinoic acid 1% (w/w), pig skin, 37°C, 24 hours
Experimental: Testing Method: Skin Permeability Test
Testing Equipment: TP-6 Intelligent Transdermal Diffuser (Tianjin Jingtuo Instrument Technology Co., Ltd.)
Undamaged sections were cut into uniform thickness pieces, approximately 2 cm × 2 cm in size, wrapped in plastic wrap, and stored at -20°C for later use.
The concentration of retinoic acid in the inclusion complex was determined by UV detection, and subsequently diluted to 0.1% (w/w). Additionally, 3 mg of retinoic acid was weighed and mixed with 297 mg of cream in a mortar. The mixture was thoroughly ground to dissolve retinoic acid in the cream, resulting in a retinoic acid concentration of 1% (w/w).
The skin was placed between the diffusion and receptor compartments after thawing. The receptor compartment was filled with the receptor solution (deionized water), and all air bubbles were expelled. The receptor compartment was maintained at 37°C in a circulating water bath throughout the experiment. The transdermal diffuser was activated, with a magnetic stirring speed set at 300 r·min^-1. After 24 hours, the solutions from the receptor compartments of each group were collected for UV detection.

[5] = Solubilization of Vitamin A by sulfonated calixarene (UV absorption); format: physicochemical
Experimental: Testing Method: UV Absorption Spectroscopy.
In 3 mL of deionized water, 5 mg (an excess amount) of Vitamin A was added, and the mixture was shaken overnight. The mixture was then centrifuged to collect the supernatant, and the UV Absorption Curve of the supernatant was measured (Figure 5).
Excess Va was added to each of these three solutions at a concentration of 5 mg/mL and shaken on a shaker to enhance the solubility of Va. After 24 hours, each group of solution was diluted 40-fold for UV absorption wavelength measurement. Meanwhile, Va was dissolved in methanol solution to prepare a 4 mM Va methanol stock solution. The Va methanol stock solution was then diluted in water to prepare a 5 µM Va standard solution with methanol as a solvent aid, which was used for UV absorption wavelength measurement.
An excess amount of Va was added to each of these solutions at 5 mg/mL, and the solutions were agitated on a shaking table to enhance the solubility of Va. After 24 hours, each group of solutions was diluted by an appropriate multiple (to fit the standard working curve described below) and used for the measurement of UV absorbance intensity.
A standard working curve for Va was prepared. A methanol solution containing 4 mM of Va was prepared. […] Subsequently, the UV absorbance intensities of these six groups of solutions with different concentrations of Va were measured, and a standard working curve was prepared.

[6] = Stabilization of Va by SC8A-12C (UV-visible spectrophotometry); format: physicochemical; settings: free Va, methanol as a solvent aid, stored for two days in the dark
Experimental: Testing Method: UV-Visible Spectrophotometry.
Va was dissolved in methanol to prepare a Va methanol solution with a concentration of 4 mM, which was then kept in the dark for two days. The UV absorptions of both the freshly prepared and the two-day stored Va methanol solutions were tested. During the testing, the Va methanol solution was first added to a cuvette, and deionized water was used to adjust the volume to 3 mL, achieving a final concentration of Va at 10 µM.

[7] = Skin permeability test of Va (transdermal diffuser); format: in vitro ADME; settings: Va 0.4% (w/w), pig skin, 37°C, 55 hours
Experimental: Undamaged sections were cut into uniform thickness pieces approximately 2 cm × 2 cm in size, wrapped in plastic wrap, and stored at -20°C for later use. 0.8 mg of Va and 200 mg of skincare cream (ointment base) were weighed and added to a mortar. The mixture was thoroughly ground to dissolve Va in the skincare cream, resulting in a Va concentration of 0.4% (w/w). Subsequently, 0.8 mg of Va was weighed and dispersed in 200 µL of water by thoroughly shaking to prepare a suspension of Va (water base), with a Va concentration of 0.4% (w/w). […] The concentration of Va in the inclusion complex was also 0.4% (w/w). The skin was placed between the diffusion and receptor compartments after thawing. The receptor compartment was filled with the receptor solution (deionized water), and all air bubbles were expelled. The receptor compartment was maintained at 37°C in a circulating water bath throughout the experiment. The transdermal diffuser was activated, with a magnetic stirring speed set at 300 r·min^-1. After 55 hours, the solutions from the receptor compartments of each group were collected for UV detection.

Binding constants Ka [1] | Molecule | other results
5.3±0.4×10^3 M^-1 | OC[C@@H](O)[C@@H](O)[C@H](O)[C@@H](O)CO [sorbitol] | 
2.8±0.6×10^4 M^-1 | α-bisabolol | 
4.3±0.5×10^3 M^-1 | OC[C@H]1O[C@@H](Oc2ccc(O)cc2)[C@H](O)[C@@H](O)[C@@H]1O [arbutin] | 
2.9±0.2×10^3 M^-1 | Nc1ccc(C(=O)OCC(O)CO)cc1 (stereo not shown) [glyceryl p-aminobenzoate] | 
3.3±0.5×10^4 M^-1 | CCCCCCCCCCO[C@@H]1O[C@H](CO)[C@@H](O)[C@H](O)[C@H]1O [decyl glucoside] | 
5.2±0.1×10^3 M^-1 | O=C(O)CCCCCCCC(=O)O [azelaic acid] | 
4.4±0.5×10^5 M^-1 | vitamin A | binding constant Kα of SC8A-12C ([1]; guest Va 10 µM (317 nm) or retinoic acid 15 µM): (4.0 ± 0.5) ×10^5 M^-1; solubility of Va in water ([5]; 5 mg Va in 3 mL deionized water, shaken overnight, supernatant UV): almost insoluble; [dissolved Va] ([5]; [SC8A-12C] 0 µM, Not detected under UV): 0* µM; UV absorption of the Va aqueous solution after storage [6]: significantly decreased; Va in the receptor compartment ([7]; ointment base): no Va was detected; permeability of Va ([7]; water base (suspension)): not good enough
5.2±0.3×10^3 M^-1 | O=C1O[C@H]([C@@H](O)CO)C(O)=C1O[C@H]1O[C@H](CO)[C@@H](O)[C@H](O)[C@H]1O [ascorbyl glucoside] | 

The next lines start with the molecule.

Molecule | Binding constants Ka [1] | other results
CC(c1ccccc1)c1ccc(O)cc1O (stereo not shown) [phenylethyl resorcinol] |  | solubility (physchem): 4900 µg/mL (≈ 22.9 mM)
cocamidopropyl betaine | 0.8±0.1×10^4 M^-1 | 
Cn1c(=O)c2c(ncn2C)n(C)c1=O [caffeine] | 3.2±0.8×10^3 M^-1 | 
ceramides | 6.5±0.2×10^3 M^-1 | 
CC(C)CCC[C@@H](C)[C@H]1CC[C@H]2[C@@H]3CC=C4C[C@@H](O)CC[C@]4(C)[C@H]3CC[C@]12C [cholesterol] | 2.3±0.5×10^5 M^-1 | 
palmitoyl tripeptide-5 |  | Binding constants Ka [2]: 6.3±0.6×10^3 M^-1
vitamin E | 2.6±0.4×10^3 M^-1 | 
CCCCCCOC(=O)c1ccccc1C(=O)c1ccc(N(CC)CC)cc1O [diethylamino hydroxybenzoyl hexyl benzoate] | 3.8±0.3×10^3 M^-1 | 
proanthocyanidins | 2.6±0.3×10^3 M^-1 | 
CC1=C(/C=C/C(C)=C/C=C/C(C)=C/C(=O)O)C(C)(C)CCC1 [retinoic acid] |  | solubility of retinoic acid in water [3]: hardly soluble; retinoic acid in the receptor compartment (UV absorption peak) [4]: no absorption peak of retinoic acid was detected
O=S(=O)(O)c1cc2c(O)c(c1)Cc1cc(S(=O)(=O)O)cc(c1O)Cc1cc(S(=O)(=O)O)cc(c1O)Cc1cc(S(=O)(=O)O)cc(c1O)C2 [SC4A, Sulfonated calix[4]arene] |  | solubilization of Va [5]: failed to solubilize Va
sphingolipids | 2.5±0.5×10^3 M^-1 | 
O=S(=O)(O)c1cc2c(O)c(c1)Cc1cc(S(=O)(=O)O)cc(c1O)Cc1cc(S(=O)(=O)O)cc(c1O)Cc1cc(S(=O)(=O)O)cc(c1O)Cc1cc(S(=O)(=O)O)cc(c1O)Cc1cc(S(=O)(=O)O)cc(c1O)Cc1cc(S(=O)(=O)O)cc(c1O)Cc1cc(S(=O)(=O)O)cc(c1O)C2 [SC8A, Sulfonated calix[8]arene] |  | solubilization of Va [5]: failed to solubilize Va
